Results published in ChEMBL document CHEMBL2074427, “Identification of a mechanism by which the methylmercury antidotes N-acetylcysteine and dimercaptopropanesulfonate enhance urinary metal excretion: transport by the renal organic anion transporter-1” (Mol Pharmacol, 2002).

What was measured:
[1] = molecular target: T1, Organic anion transporter 3 (Rattus norvegicus, UniProt Q9R1U7); assay: (§1) TP_TRANSPORTER: uptake in Xenopus laevis oocytes; format: functional, cell-based; settings: oocyte
T1 sequence (Q9R1U7 whole entry): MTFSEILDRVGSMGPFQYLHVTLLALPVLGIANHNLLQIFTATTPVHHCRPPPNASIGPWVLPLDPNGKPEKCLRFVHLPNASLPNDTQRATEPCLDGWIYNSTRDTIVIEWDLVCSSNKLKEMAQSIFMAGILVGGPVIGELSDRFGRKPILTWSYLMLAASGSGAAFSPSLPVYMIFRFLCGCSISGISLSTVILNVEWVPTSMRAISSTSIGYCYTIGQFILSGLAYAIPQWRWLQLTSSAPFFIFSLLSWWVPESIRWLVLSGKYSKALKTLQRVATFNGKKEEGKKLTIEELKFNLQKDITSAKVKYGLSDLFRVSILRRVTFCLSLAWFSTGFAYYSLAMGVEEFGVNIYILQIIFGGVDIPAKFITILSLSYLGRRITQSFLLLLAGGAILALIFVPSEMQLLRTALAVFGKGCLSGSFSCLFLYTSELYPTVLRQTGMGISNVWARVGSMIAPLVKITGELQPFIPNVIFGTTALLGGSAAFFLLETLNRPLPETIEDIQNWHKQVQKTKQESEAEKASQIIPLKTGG

[2] = molecular target: T2, Solute carrier family 22 member 6 (Rattus norvegicus, UniProt O35956); assay: as §1; format: functional, cell-based; settings: oocyte
T2 sequence (O35956 whole entry): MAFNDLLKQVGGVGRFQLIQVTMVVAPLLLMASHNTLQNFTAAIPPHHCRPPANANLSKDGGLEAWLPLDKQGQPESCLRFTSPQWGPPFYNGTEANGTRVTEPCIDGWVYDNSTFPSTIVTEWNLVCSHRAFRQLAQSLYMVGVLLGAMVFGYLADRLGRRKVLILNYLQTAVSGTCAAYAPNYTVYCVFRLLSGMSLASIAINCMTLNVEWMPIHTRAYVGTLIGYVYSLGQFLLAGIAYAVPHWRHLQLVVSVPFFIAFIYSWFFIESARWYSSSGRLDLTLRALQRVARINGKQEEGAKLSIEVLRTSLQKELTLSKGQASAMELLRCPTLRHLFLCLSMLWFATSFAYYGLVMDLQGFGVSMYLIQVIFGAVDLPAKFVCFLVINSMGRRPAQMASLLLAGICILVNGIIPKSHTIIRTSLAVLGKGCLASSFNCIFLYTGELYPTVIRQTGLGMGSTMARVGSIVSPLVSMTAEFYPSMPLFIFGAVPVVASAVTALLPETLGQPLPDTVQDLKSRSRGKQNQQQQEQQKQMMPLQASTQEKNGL

[3] = molecular target: T2, Solute carrier family 22 member 6; assay: TP_TRANSPORTER: inhibition of PAH uptake in Xenopus laevis oocytes; format: functional, cell-based, Oocyte

Row | Activity [1] | Activity [2] | Ki [3] | Km [2] | Molecule
1 | is not a substrate [-] | is not a substrate [-] |  |  | MeHg-glutathione
2 |  |  | 2000 µM |  | CC(=O)N[C@@H](CS)C(=O)O [ACETYLCYSTEINE]
3 | is not a substrate [-] | is not a substrate [-] |  |  | MeHg-penicillamine
4 | is not a substrate [-] |  |  | 31 µM | MeHg-NAC
